The values below come from US20230331739A1, “INDOLO HEPTAMYL OXIME ANALOG CRYSTAL AS PARP INHIBITOR AND METHOD FOR PREPARING SAME” (CHIA TAI TIANQING PHARMACEUTICAL GROUP CO., LTD., priority 2020, published 2023).

Structures are written as SMILES. pIC50: −log10 of the molar value.

Series [1] is described as follows: Body weight change in the MDA-MB-436 xenograft study. Type of series: in vivo. The following applies: three dose groups (12.5, 25, 50 mg/kg PO QD). The text has this:
3. Daily observation of animals: the animals were monitored daily for health and death, and routine examinations include observation of the effect on tumor growth and the therapy on the daily performance of the animals, such as behavioral activities, food and water intake, change in body weight, appearance, or other abnormal conditions.
1. The body weights of the animals were used as a reference index for indirectly measuring the toxicity of the drug. In this model, no other morbidity or mortality occurred during the study.

The subject of series [2] is MDA-MB-231 cells with wild-type BRCA. Briefly: Anti-proliferation study on MDA-MB-231 cells (CellTiter-Glo). The class given is cell-based. The following applies: Homo sapiens, MDA-MB-231, 72 h; 3 days incubation. How it is done: Materials: test compounds; R DMEM medium; fetal bovine serum; penicillin/streptomycin antibiotic; MDA-MB-231 cells; Envision Multimode Plate Reader.
MDA-MB-231 cells were seeded in a white 96-well plate by adding 80 μL of cell suspension (containing 5000 MDA-MB-231 cells) to each well. The cell plate was incubated in a CO2 incubator overnight.
Eight concentrations were set for each compound. The test compounds were serially 3-fold diluted to the 8th concentration with a multichannel pipette, i.e., from 2 mM to 920 nM, in duplicate. 78 μL of medium was added to an intermediate plate, and the serially diluted compound was transferred to the intermediate plate at 2 μL per well. After being mixed well, the mixture was transferred to the cell plate at 20 μL per well. […] Another cell plate was provided for reading signal values on the day of compound addition and these signal values were used as Max values in data analysis. Promega CellTiter-Glo was added to the cell plate at 25 μL per well and the luminescence signals were stabilized by incubation for 10 min at room temperature. Readings were taken using a PerkinElmer Envision Multimode Plate Reader.
Promega CellTiter-Glo was added to the cell plate at 25 μL per well and the luminescence signals were stabilized by incubation for 10 min at room temperature. Readings were taken using a PerkinElmer Envision Multimode Plate Reader. […]

The nature of series [3]: Protein binding rate in plasma (equilibrium dialysis), human. The class given is in vitro ADME. The conditions noted are these: 4 h dialysis. How it is done:
(§1) The protein binding rates of the compound disclosed herein in plasma of human, CD-1 mice and SD rats were determined. 796 μL of blank plasma was taken from human, CD-1 mice or SD rats, and 4 μL of test compound working solution (400 μM) or warfarin working solution (400 μM) was added to achieve a final concentration of 2 μM of both the test compound and the warfarin in the plasma sample. The samples were mixed well. The final concentration of organic phase DMSO was 0.5%; 50 μL of test compound and warfarin plasma sample was pipetted into a sample receiving plate (in triplicate), and a corresponding volume of blank plasma or buffer was immediately added such that the final volume in each sample well was 100 μL. The volume ratio of plasma to dialysis buffer was 1:1. […] All samples were subjected to LC/MS analysis after protein precipitation, and the protein binding rates and the recovery rates were calculated by the following formulas: protein unbinding rate (%)=100× drug concentration passing through dialysis membrane/drug concentration not passing through dialysate; protein binding rate (%)=100−protein unbinding rate (%); recovery rate (%)=100×(drug concentration passing through dialysis membrane+drug concentration not passing through dialysate)/total drug concentration before dialysis.

For another series, the target named is CYP2C9 (Homo sapiens (Human), UniProt P11712). The series is described as follows: Inhibition against cytochrome P450 isoenzymes, CYP2C9. The following applies: human liver microsomes. Type of series: in vitro ADME. Here is the method: The inhibition of the test compound against different subtypes of the human cytochrome P450 isoenzyme was determined. The test compound, a standard inhibitor (100×final concentration) and a mixed substrate working solution were prepared; the microsomes frozen in a refrigerator at −80° C. were taken out and thawed. […]
CYP2C9, sequence (P11712 whole entry): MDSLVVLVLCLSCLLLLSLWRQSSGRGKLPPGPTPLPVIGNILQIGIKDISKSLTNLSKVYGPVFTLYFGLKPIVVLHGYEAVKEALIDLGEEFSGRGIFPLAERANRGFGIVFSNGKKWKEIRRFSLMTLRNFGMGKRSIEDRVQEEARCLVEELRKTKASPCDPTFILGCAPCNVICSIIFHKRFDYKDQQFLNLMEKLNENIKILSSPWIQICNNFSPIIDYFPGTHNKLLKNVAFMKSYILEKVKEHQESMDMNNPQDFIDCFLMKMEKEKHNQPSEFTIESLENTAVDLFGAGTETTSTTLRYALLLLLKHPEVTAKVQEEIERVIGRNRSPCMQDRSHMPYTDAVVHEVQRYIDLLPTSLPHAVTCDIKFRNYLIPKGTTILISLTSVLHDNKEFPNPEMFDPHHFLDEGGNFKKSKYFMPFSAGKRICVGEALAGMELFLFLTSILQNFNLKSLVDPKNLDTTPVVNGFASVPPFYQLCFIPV

Series [4] in a line: Protein binding rate in plasma (equilibrium dialysis), SD rat. Type of series: in vitro ADME. The conditions noted are these: 4 h dialysis. Here is the method: as §1

As for `C[C@]1(c2ccc(-c3[nH]c4cc(F)cc5c4c3CONC5=O)cc2)CCCN1` [Compound 1], in series [1], the “change in body weight” value was “little change in body weight”. The same molecule had a pIC50 in series [2] below 5.00. The fraction unbound at 4 h, 2 μM was 0.149 in series [3] and 0.077 in series [4]. Moreover, the IC50 on CYP2C9 is above 50 µM.
